How the values were obtained:
Assay type in all cases: cell-based
[1] = MTT cell viability / observation of normal vascular smooth muscle cells (A10); settings: rat, A10 cells, drug concentration 0.2 mM, MTT
Method: (§1) The cells (1×10^5 cells/well in 24-well plates) were cultured for 24 hrs. Different concentrations of Sal-B and its analogs (0, 50, 100, 150, 200, 250 μg/ml) were added to treat the cells. After treating for 48 hrs, 100 μl MTT solution was added to each well, and the plate was placed in an incubator for 1-4 hrs. After adding 400 μl DMSO to treat the cells for 30 min., 200 μl samples were collected and placed in a 96-well plate to conduct the absorption measurement at 550 nm.
(§2) Cell viability testing (MTT testing) was employed to determine the cytotoxicity of Sal-B and EBA to vascular smooth muscle cells. Vascular smooth muscle cells (cell line A10) were treated with Sal-B and EBA at concentrations of 0, 0.1, 0.2, 0.3, 0.4, and 0.5 mM. After treating for 48 hrs, MTT was added and allowed to react for 3 hrs at 37° C. Then, DMSO was added and allowed to react for 30 min., after that, the OD570 absorption values were measured. Cell viability was still 90% when the drug concentration reached 0.2 mM.
(§3) Sal-B's analogs, compounds A to F, were dissolved in DMSO, and then added to A10 cells to observe the results.

[2] = MTT cell viability, prostate cancer cells; settings: human, PC-3 prostate cancer cells; PC-3, 0.2 mM, 48 hrs, MTT
Method: as §1
(§4) Cancer cells were treated with Sal-B and EBA at concentrations of 0, 0.1, 0.2, 0.3, 0.4, 0.5 mM. After treating for 48 hrs, MTT was added, and then allowed to react for 3 hrs at 37° C. After that, DMSO was added and allowed to react for 30 min., the OD570 absorption values were measured. Cell viability was above 80% when nasopharyngeal cancer cells (Hone-1) were treated with […] Sal-B and EBA. […] But the cell viability remained above 70% for treating with 0.1 mM and 0.2 mM EBA. Similar results were obtained when prostate cancer cells (PC-3) were treated with the drugs: Cell viability was above 80% for treating PC-3 cells with 0.2 mM Sal-B or EBA.
MTT testing was employed to observe the viability of cancer cells after treating with Sal-B and the six synthetic analogs.

[3] = test system: nasopharyngeal cancer cells (Hone-1); assay: MTT cell viability, nasopharyngeal cancer cells; settings: Hone-1 cells, summary statement
Method: as §1, §4

[4] = MTT cell viability, nasopharyngeal cancer cells; settings: human, Hone-1 nasopharyngeal cancer cells, 48 hrs, MTT
Method: as §1, §4

[5] = test system: Vascular smooth muscle cells (cell line A10); assay: MTT cell viability / observation of normal vascular smooth muscle cells (A10); settings: A10 cells, drug concentration 0.2 mM, 48 hrs, MTT
Method: as §1, §2, §3

| Molecule | viability at 48 h, 0.2 mM [1] | viability at 48 h, 0.2 mM [2] | Inhibition of growth of Hone-1 cells [3] | viability at 48 h, 0.05 mM ([4]; Hone-1, 0.05 mM) | viability at 48 h ([4]; Hone-1, 0.1 mM and 0.2 mM) | Cell viability [5] |
| --- | --- | --- | --- | --- | --- | --- |
| O=C(/C=C/c1ccc(O)c2c1[C@H](C(=O)O[C@H](Cc1ccc(O)c(O)c1)C(=O)[O-])[C@@H](c1ccc(O)c(O)c1)O2)O[C@H](Cc1ccc(O)c(O)c1)C(=O)[O-].[Mg+2] [Sal-B, magnesium lithospermate B] | 90% | > 80% | significantly inhibit the growth | > 80% | ~60% | – |
| epiblechnic acid [EBA] | – | – | – | – | – | 90% |

Source: US8080582B2, “Derivatives of 8-epiblechnic acid and their effects on down-regulation of endothelin (ETA) receptor mRNA” (ScinoPharm Taiwan Ltd., priority 2008, dated 2011)
